From patent US12662489B2 (Sitryx Therapeutics Limited, priority 2023, dated 2026) come the findings set out here.

Usually IC50 stands for the concentration needed to halve the response being measured.

Experiment [1] deals with T1, MTHFD1 recombinant human enzyme (Homo sapiens, UniProt P11586).
T1 sequence (P11586 2-291 limits assumed): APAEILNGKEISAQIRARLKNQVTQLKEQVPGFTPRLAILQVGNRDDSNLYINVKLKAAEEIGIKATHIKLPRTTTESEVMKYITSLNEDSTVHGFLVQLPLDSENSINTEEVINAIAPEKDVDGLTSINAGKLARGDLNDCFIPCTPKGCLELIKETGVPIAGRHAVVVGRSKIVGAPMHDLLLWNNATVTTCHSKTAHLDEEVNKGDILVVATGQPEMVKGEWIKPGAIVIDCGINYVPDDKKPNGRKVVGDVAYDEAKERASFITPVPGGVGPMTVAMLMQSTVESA
Put plainly: MTHFD1 inhibition assay (NAD(P)H-Glo luminescence). The following applies: MTHFD1 IC50, recombinant human enzyme 200 nM, NADP, band.

The target of experiment [2] is T2, MTHFD2 recombinant human enzyme (Homo sapiens, UniProt P13995).
T2 sequence (P13995 36-350): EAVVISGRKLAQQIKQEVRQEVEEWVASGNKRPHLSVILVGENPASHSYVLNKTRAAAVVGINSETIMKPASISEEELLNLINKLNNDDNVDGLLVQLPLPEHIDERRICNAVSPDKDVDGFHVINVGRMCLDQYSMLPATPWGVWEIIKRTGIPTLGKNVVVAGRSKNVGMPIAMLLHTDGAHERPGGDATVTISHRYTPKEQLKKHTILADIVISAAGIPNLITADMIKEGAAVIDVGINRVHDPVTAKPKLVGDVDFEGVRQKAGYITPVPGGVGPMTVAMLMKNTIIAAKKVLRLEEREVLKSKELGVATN
Put plainly: MTHFD2 inhibition assay (NAD(P)H-Glo luminescence). The following applies: for MTHFD1/MTHFD2 IC50 ratio: selectivity of MTHFD2 inhibition over MTHFD1, band.

The structures appear in SMILES notation.

As for `COC[C@H]1CN(c2ccc3c4c(c(=O)oc3c2C)CN(C(=O)c2ccc(C(=O)NS(=O)(=O)N(C)C(C)C)c(OC3CCC3)c2F)CC4)CCN1C` [Example 56, (R)-2-cyclobutoxy-3-fluoro-N-(N-isopropyl-N-methylsulfamoyl)-4-(8-(3-(methoxymethyl)-4-methylpiperazin-1-yl)-7-methyl-5-oxo-1,3,4,5-tetrahydro-2H-chromeno[3,4-c]pyridine-3-carbonyl)benzamide], the IC50 in experiment [1] was in the range of 0.001 to 0.01 µM. In experiment [2], the IC50 was in the range of 0.001 to 0.01 µM and the “MTHFD1/MTHFD2 IC50 ratio” value is “F (<3)”.

As for `COC[C@H]1CN(c2ccc3c4c(c(=O)oc3c2Cl)CN(C(=O)c2ccc(C(=O)NS(=O)(=O)C3(C)CC3)c(OC3CCCC3)c2F)CC4)CCN1C` [Example 57, (R)-4-(7-chloro-8-(3-(methoxymethyl)-4-methylpiperazin-1-yl)-5-oxo-1,3,4,5-tetrahydro-2H-chromeno[3,4-c]pyridine-3-carbonyl)-2-(cyclopentyloxy)-3-fluoro-N-((1-methylcyclopropyl)sulfonyl)benzamide], in experiment [1], the IC50 lay in the range of 0.001 to 0.01 µM. Moreover, in experiment [2], the 50% inhibitory concentration (IC50) was 0.001 to 0.01 µM and the “MTHFD1/MTHFD2 IC50 ratio” value is given as “F (<3)”.

Turning to `COC[C@H]1CN(c2ccc3c4c(c(=O)oc3c2C)CN(C(=O)c2ccc(C(=O)NS(=O)(=O)N(C)C(C)C)c(OC3CCCC3)c2F)CC4)CCN1C` [Example 58, (R)-2-(cyclopentyloxy)-3-fluoro-N-(N-isopropyl-N-methylsulfamoyl)-4-(8-(3-(methoxymethyl)-4-methylpiperazin-1-yl)-7-methyl-5-oxo-1,3,4,5-tetrahydro-2H-chromeno[3,4-c]pyridine-3-carbonyl)benzamide], the IC50 in experiment [1] and in experiment [2] was 0.001 to 0.01 µM throughout.

On to `COC[C@H]1CN(c2ccc3c4c(c(=O)oc3c2C)CN(C(=O)c2ccc(C(=O)NS(=O)(=O)C3(C)CC3)c(O[C@@H]3C[C@@H]5C[C@@H]5C3)c2F)CC4)CCN1C` [Example 59, 2-(((1R,3r,5S)-bicyclo[3.1.0]hexan-3-yl)oxy)-3-fluoro-4-(8-((R)-3-(methoxymethyl)-4-methylpiperazin-1-yl)-7-methyl-5-oxo-1,3,4,5-tetrahydro-2H-chromeno[3,4-c]pyridine-3-carbonyl)-N-((1-methylcyclopropyl)sulfonyl)benzamide], for which, in experiment [1], the IC50 lay within 0.001 to 0.01 µM. Moreover, in experiment [2], the IC50 lay in the range of 0.001 to 0.01 µM and the “MTHFD1/MTHFD2 IC50 ratio” value was “F (<3)”.

Regarding `COC[C@H]1CN(c2ccc3c4c(c(=O)oc3c2Cl)CN(C(=O)c2ccc(C(=O)NS(=O)(=O)C3(C)CC3)c(O[C@@H]3C[C@@H]5C[C@@H]5C3)c2F)CC4)CCN1C` [Example 60, 2-(((1R,3r,5S)-bicyclo[3.1.0]hexan-3-yl)oxy)-4-(7-chloro-8-((R)-3-(methoxymethyl)-4-methylpiperazin-1-yl)-5-oxo-1,3,4,5-tetrahydro-2H-chromeno[3,4-c]pyridine-3-carbonyl)-3-fluoro-N-((1-methylcyclopropyl)sulfonyl)benzamide], the IC50 in experiment [1] was in the range of 0.001 to 0.01 µM. Further, in experiment [2], the IC50 was 0.001 to 0.01 µM and the “MTHFD1/MTHFD2 IC50 ratio” value is listed as “F (<3)”.

With `COC[C@H]1CN(c2ccc3c4c(c(=O)oc3c2Cl)CN(C(=O)c2ccc(C(=O)NS(=O)(=O)N(C)C)c(O[C@@H]3C[C@@H]5C[C@@H]5C3)c2F)CC4)CCN1C` [Example 61, 2-(((1R,3r,5S)-bicyclo[3.1.0]hexan-3-yl)oxy)-4-(7-chloro-8-((R)-3-(methoxymethyl)-4-methylpiperazin-1-yl)-5-oxo-1,3,4,5-tetrahydro-2H-chromeno[3,4-c]pyridine-3-carbonyl)-N-(N,N-dimethylsulfamoyl)-3-fluorobenzamide], the IC50 in experiment [1] was 0.001 to 0.01 µM. For the same molecule, in experiment [2], the IC50 fell in the range of 0.001 to 0.01 µM and the “MTHFD1/MTHFD2 IC50 ratio” value is given as “F (<3)”.

For the molecule `COC[C@H]1CN(c2ccc3c4c(c(=O)oc3c2Cl)CN(C(=O)c2ccc(C(=O)NS(=O)(=O)N3CCCC3)c(O[C@@H]3C[C@@H]5C[C@@H]5C3)c2F)CC4)CCN1C` [Example 62, 2-(((1R,3r,5S)-bicyclo[3.1.0]hexan-3-yl)oxy)-4-(7-chloro-8-((R)-3-(methoxymethyl)-4-methylpiperazin-1-yl)-5-oxo-1,3,4,5-tetrahydro-2H-chromeno[3,4-c]pyridine-3-carbonyl)-3-fluoro-N-(pyrrolidin-1-ylsulfonyl)benzamide], the IC50 in experiment [1] is 0.001 to 0.01 µM; in experiment [2] it was 0.01 to 0.1 µM. Also, in experiment [2], the “MTHFD1/MTHFD2 IC50 ratio” value was “F (<3)”.

`COC[C@H]1CN(c2ccc3c4c(c(=O)oc3c2C)CN(C(=O)c2ccc(C(=O)NS(=O)(=O)N3CCCC3)c(O[C@@H]3C[C@@H]5C[C@@H]5C3)c2F)CC4)CCN1C` [Example 63, 2-(((1R,3r,5S)-bicyclo[3.1.0]hexan-3-yl)oxy)-3-fluoro-4-(8-((R)-3-(methoxymethyl)-4-methylpiperazin-1-yl)-7-methyl-5-oxo-1,3,4,5-tetrahydro-2H-chromeno[3,4-c]pyridine-3-carbonyl)-N-(pyrrolidin-1-ylsulfonyl)benzamide]: the IC50 in experiment [1] lay within 0.001 to 0.01 µM. In experiment [2], the 50% inhibitory concentration (IC50) fell in the range of 0.001 to 0.01 µM and the “MTHFD1/MTHFD2 IC50 ratio” value is on record as “F (<3)”.

As to `COC[C@H]1CN(c2ccc3c4c(c(=O)oc3c2C)CN(C(=O)c2ccc(C(=O)NS(=O)(=O)N(C)C(C)C)c(O[C@@H]3C[C@@H]5C[C@@H]5C3)c2F)CC4)CCN1C` [Example 64, 2-(((1R,3r,5S)-bicyclo[3.1.0]hexan-3-yl)oxy)-3-fluoro-N-(N-isopropyl-N-methylsulfamoyl)-4-(8-((R)-3-(methoxymethyl)-4-methylpiperazin-1-yl)-7-methyl-5-oxo-1,3,4,5-tetrahydro-2H-chromeno[3,4-c]pyridine-3-carbonyl)benzamide], the IC50 in experiment [1] and in experiment [2] was 0.001 to 0.01 µM each time. Besides, the “MTHFD1/MTHFD2 IC50 ratio” value in experiment [2] was “F (<3)”.

With `COC[C@H]1CN(c2ccc3c4c(c(=O)oc3c2Cl)CN(C(=O)c2ccc(C(=O)NS(=O)(=O)N(C)C(C)C)c(O[C@@H]3C[C@@H]5C[C@@H]5C3)c2F)CC4)CCN1C` [Example 65, 2-(((1R,3r,5S)-bicyclo[3.1.0]hexan-3-yl)oxy)-4-(7-chloro-8-((R)-3-(methoxymethyl)-4-methylpiperazin-1-yl)-5-oxo-1,3,4,5-tetrahydro-2H-chromeno[3,4-c]pyridine-3-carbonyl)-3-fluoro-N-(N-isopropyl-N-methylsulfamoyl)benzamide], the IC50 in experiment [1] is 0.001 to 0.01 µM; in experiment [2], 0.01 to 0.1 µM. In experiment [2], the “MTHFD1/MTHFD2 IC50 ratio” value was “F (<3)”.

Take `COC[C@H]1CN(c2cc(C)c3c4c(c(=O)oc3c2C)CN(C(=O)c2ccc(C(=O)NS(=O)(=O)N3CCCC3)c(O[C@H]3C[C@@H]5C[C@@H]5C3)c2F)CC4)CCN1C` [Example 66, 2-(((1R,3s,5S)-bicyclo[3.1.0]hexan-3-yl)oxy)-3-fluoro-4-(8-((R)-3-(methoxymethyl)-4-methylpiperazin-1-yl)-7,10-dimethyl-5-oxo-1,3,4,5-tetrahydro-2H-chromeno[3,4-c]pyridine-3-carbonyl)-N-(pyrrolidin-1-ylsulfonyl)benzamide]: the IC50 in experiment [1] lay in the range of 0.001 to 0.01 µM. Besides, in experiment [2], the IC50 was in the range of 0.001 to 0.01 µM and the “MTHFD1/MTHFD2 IC50 ratio” value is given as “F (<3)”.

With `COC[C@H]1CN(c2cc(C)c3c4c(c(=O)oc3c2C)CN(C(=O)c2ccc(C(=O)NS(=O)(=O)N(C)C)c(O[C@H]3C[C@@H]5C[C@@H]5C3)c2F)CC4)CCN1C` [Example 67, 2-(((1R,3s,5S)-bicyclo[3.1.0]hexan-3-yl)oxy)-N-(N,N-dimethylsulfamoyl)-3-fluoro-4-(8-((R)-3-(methoxymethyl)-4-methylpiperazin-1-yl)-7,10-dimethyl-5-oxo-1,3,4,5-tetrahydro-2H-chromeno[3,4-c]pyridine-3-carbonyl)benzamide], the IC50 in experiment [1] was in the range of 0.001 to 0.01 µM. In addition, in experiment [2], the IC50 fell in the range of 0.001 to 0.01 µM and the “MTHFD1/MTHFD2 IC50 ratio” value is listed as “F (<3)”.

With `COC[C@H]1CN(c2cc(C)c3c4c(c(=O)oc3c2C)CN(C(=O)c2ccc(C(=O)NS(=O)(=O)C3(C)CC3)c(O[C@H]3C[C@@H]5C[C@@H]5C3)c2F)CC4)CCN1C` [Example 68, 2-(((1R,3s,5S)-bicyclo[3.1.0]hexan-3-yl)oxy)-3-fluoro-4-(8-((R)-3-(methoxymethyl)-4-methylpiperazin-1-yl)-7,10-dimethyl-5-oxo-1,3,4,5-tetrahydro-2H-chromeno[3,4-c]pyridine-3-carbonyl)-N-((1-methylcyclopropyl)sulfonyl)benzamide], the concentration for half-maximal inhibition (IC50) in experiment [1] lay in the range of 0.001 to 0.01 µM. Moreover, in experiment [2], the IC50 fell in the range of 0.001 to 0.01 µM and the “MTHFD1/MTHFD2 IC50 ratio” value is listed as “F (<3)”.

As for `COC[C@H]1CN(c2cc(C)c3c4c(c(=O)oc3c2C)CN(C(=O)c2ccc(C(=O)NS(=O)(=O)N(C)C)c(N3CCCC3)c2F)CC4)CCN1C` [Example 70, (R)-N-(N,N-dimethylsulfamoyl)-3-fluoro-4-(8-(3-(methoxymethyl)-4-methylpiperazin-1-yl)-7,10-dimethyl-5-oxo-1,3,4,5-tetrahydro-2H-chromeno[3,4-c]pyridine-3-carbonyl)-2-(pyrrolidin-1-yl)benzamide], the IC50 in experiment [1] fell in the range of 0.01 to 0.1 µM; in experiment [2] it was 0.001 to 0.01 µM. For the same molecule, the “MTHFD1/MTHFD2 IC50 ratio” value in experiment [2] was “G (^ 3 to 9.0)”.
